ChEMBL document CHEMBL4043259, “From UTP to AR-C118925, the discovery of a potent non nucleotide antagonist of the P2Y2 receptor” (Bioorg Med Chem Lett, 2017)

target: P2Y purinoceptor 2 (Homo sapiens, UniProt P41231); assay: Antagonist activity at human P2Y2R expressed in human Jurkat cells assessed as inhibition of UTP-activated intracellular calcium mobilization by fluo-3AM dye based fluorescence assay; type: functional, cell-based; settings: read-out: pA2 (converted)
Sequence (P41231 whole entry): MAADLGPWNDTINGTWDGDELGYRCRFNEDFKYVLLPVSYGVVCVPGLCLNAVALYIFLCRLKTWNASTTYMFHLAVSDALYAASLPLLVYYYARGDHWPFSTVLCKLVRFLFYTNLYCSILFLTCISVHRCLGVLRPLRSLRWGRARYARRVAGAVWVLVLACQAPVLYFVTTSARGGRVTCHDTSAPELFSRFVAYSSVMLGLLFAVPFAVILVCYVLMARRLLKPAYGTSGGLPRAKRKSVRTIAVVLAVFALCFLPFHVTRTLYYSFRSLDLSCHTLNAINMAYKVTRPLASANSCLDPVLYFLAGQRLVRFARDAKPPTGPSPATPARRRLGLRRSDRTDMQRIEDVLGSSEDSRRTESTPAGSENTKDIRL

Kb [nM]	SMILES
2000	O=C(O)c1csc(Cn2cc(C3c4ccccc4C=Cc4ccccc43)c(=S)[nH]c2=O)n1
31.6	Cc1ccc2c(c1)C=Cc1cc(C)ccc1C2c1cn(Cc2ccc(C(=O)Nc3nc(CC(=O)O)cs3)o2)c(=O)[nH]c1=S
39.8	Cc1ccc2c(c1)C=Cc1cc(C)ccc1C2c1cn(Cc2nc(C(=O)N[C@@H](CC(=O)O)C(=O)O)cs2)c(=O)[nH]c1=S
200	O=C(O)c1ccc(Cn2cc(C3c4ccc(Cl)cc4C=Cc4cc(Cl)ccc43)c(=S)[nH]c2=O)o1
50.1	O=c1[nH]c(=S)c(C2c3ccccc3Oc3ccccc32)cn1[C@@H]1O[C@H](COP(=O)(O)OP(=O)(O)C(Cl)(Cl)P(=O)(O)O)[C@@H](O)[C@H]1O
2510	O=C(O)c1cc(Cn2cc(C3c4ccccc4C=Cc4ccccc43)c(=S)[nH]c2=O)cs1
63.1	Cc1ccc2c(c1)C=Cc1cc(C)ccc1C2c1cn(Cc2ccc(C(=O)Nc3nc(CC(=O)N[C@@H](CC(=O)O)C(=O)O)cs3)o2)c(=O)[nH]c1=S
3.16	O=c1[nH]c(=S)c(C2c3ccccc3C=Cc3ccccc32)cn1[C@@H]1O[C@H](COP(=O)(O)OP(=O)(O)C(Cl)(Cl)P(=O)(O)O)[C@@H](O)[C@H]1O
100	Cc1ccc2c(c1)C=Cc1cc(C)ccc1C2c1cn(Cc2ccc(C(=O)O)o2)c(=O)[nH]c1=S
6310	O=C(O)c1cnc(Cn2cc(C3c4ccccc4C=Cc4ccccc43)c(=S)[nH]c2=O)s1
25.1	Cc1ccc2c(c1)C=Cc1cc(C)ccc1C2c1cn(Cc2ccc(C(=O)N[C@@H](CC(=O)O)C(=O)O)o2)c(=O)[nH]c1=S
20000	O=c1[nH]c(=S)c(C2c3ccccc3C=Cc3ccccc32)cn1[C@@H]1O[C@H](CO)[C@@H](O)[C@H]1O
20	O=c1[nH]c(=S)c(C(c2ccc(Cl)c(Cl)c2)c2ccc(Cl)c(Cl)c2)cn1[C@@H]1O[C@H](COP(=O)(O)OP(=O)(O)C(Cl)(Cl)P(=O)(O)O)[C@@H](O)[C@H]1O
15.8	Cc1ccc(C(c2ccc(C)cc2)c2cn([C@@H]3O[C@H](COP(=O)(O)OP(=O)(O)C(Cl)(Cl)P(=O)(O)O)[C@@H](O)[C@H]3O)c(=O)[nH]c2=S)cc1
63.1	O=c1[nH]c(=S)c(C2c3ccccc3-c3ccccc32)cn1[C@@H]1O[C@H](COP(=O)(O)OP(=O)(O)C(Cl)(Cl)P(=O)(O)O)[C@@H](O)[C@H]1O
3980	O=C(O)c1cccc(Cn2cc(C3c4ccccc4C=Cc4ccccc43)c(=S)[nH]c2=O)c1
2000	O=C(O)Cc1cccc(Cn2cc(C3c4ccccc4C=Cc4ccccc43)c(=S)[nH]c2=O)c1
1260	O=C(O)c1ccc(Cn2cc(C3c4ccccc4C=Cc4ccccc43)c(=S)[nH]c2=O)o1
1000	O=c1[nH]c(=S)c(C(c2ccccc2)c2ccccc2)cn1[C@@H]1O[C@H](COP(=O)(O)OP(=O)(O)C(Cl)(Cl)P(=O)(O)O)[C@@H](O)[C@H]1O
1580	O=C(O)c1coc(Cn2cc(C3c4ccccc4C=Cc4ccccc43)c(=S)[nH]c2=O)n1
251	Cc1ccc2c(c1)C=Cc1cc(C)ccc1C2c1cn(Cc2nc(C(=O)O)cs2)c(=O)[nH]c1=S
10	O=c1[nH]c(=S)c(C2c3ccccc3CCc3ccccc32)cn1[C@@H]1O[C@H](COP(=O)(O)OP(=O)(O)C(Cl)(Cl)P(=O)(O)O)[C@@H](O)[C@H]1O
12.6	O=c1[nH]c(=S)c(C(c2ccc(Cl)cc2)c2ccc(Cl)cc2)cn1[C@@H]1O[C@H](COP(=O)(O)OP(=O)(O)C(Cl)(Cl)P(=O)(O)O)[C@@H](O)[C@H]1O
39800	O=C(O)c1csc(Cn2cc(C3c4ccccc4C=Cc4ccccc43)c(=O)[nH]c2=O)n1
2510	O=C(O)COc1cccc(Cn2cc(C3c4ccccc4C=Cc4ccccc43)c(=S)[nH]c2=O)c1
79.4	COc1ccc(C(c2ccc(OC)cc2)c2cn([C@@H]3O[C@H](COP(=O)(O)OP(=O)(O)C(Cl)(Cl)P(=O)(O)O)[C@@H](O)[C@H]3O)c(=O)[nH]c2=S)cc1
3980	O=C(O)c1cccc(Cn2cc(C3c4ccccc4C=Cc4ccccc43)c(=S)[nH]c2=O)n1

test system: not listed separately; assay: Clearance in rat administered via iv; type: ADME; settings: in vivo

clearance [mL/min/kg]	SMILES
75	Cc1ccc2c(c1)C=Cc1cc(C)ccc1C2c1cn(Cc2ccc(C(=O)Nc3nnn[nH]3)o2)c(=O)[nH]c1=S

test system: not listed separately; assay: Volume of distribution at steady state in rat administered via iv; type: ADME; settings: in vivo, read-out: Vdss

Vd [L/kg]	SMILES
4.34	Cc1ccc2c(c1)C=Cc1cc(C)ccc1C2c1cn(Cc2ccc(C(=O)Nc3nnn[nH]3)o2)c(=O)[nH]c1=S

test system: not listed separately; assay: Half life in rat administered via iv; type: ADME; settings: in vivo

half-life [h]	SMILES
2.12	Cc1ccc2c(c1)C=Cc1cc(C)ccc1C2c1cn(Cc2ccc(C(=O)Nc3nnn[nH]3)o2)c(=O)[nH]c1=S

test system: not listed separately; assay: Bioavailability in rat; type: ADME, organism-based; settings: in vivo

bioavailability [%]	SMILES
0	Cc1ccc2c(c1)C=Cc1cc(C)ccc1C2c1cn(Cc2ccc(C(=O)Nc3nnn[nH]3)o2)c(=O)[nH]c1=S
